# Molecular target: T1, h FPR2 (Homo sapiens, UniProt P25090)
# T1 construct: expressed in transfected cells
# T1 sequence (P25090 1-351): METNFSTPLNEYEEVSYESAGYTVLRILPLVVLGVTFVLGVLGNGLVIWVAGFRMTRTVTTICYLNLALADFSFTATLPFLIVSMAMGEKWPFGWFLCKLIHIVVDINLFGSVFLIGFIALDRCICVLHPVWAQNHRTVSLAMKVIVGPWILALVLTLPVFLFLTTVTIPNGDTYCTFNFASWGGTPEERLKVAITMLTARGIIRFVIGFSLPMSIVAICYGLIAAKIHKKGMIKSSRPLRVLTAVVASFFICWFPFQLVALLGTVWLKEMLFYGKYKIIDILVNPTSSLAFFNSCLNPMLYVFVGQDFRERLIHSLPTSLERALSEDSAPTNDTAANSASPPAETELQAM
# Assay: Agonistic activity in hFPR2-Aq-CHO cells (FLIPR Calcium 5 fluorescence assay)
# Type: cell-based
# Settings: 11 point half log dilution, final assay concentration from 10µM
# Procedure, shortened: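 hFPR2-Aq-CHO cells were loaded with Calcium 5 dye for 30 min at 37 °C and equilibrated 10 min at room temperature. Compound (11 points, 10 µM to 100 pM final) was added in HBSS/HEPES/probenecid buffer pH 7.4. Fluorescence rise over basal across 5 min, relative to no-compound wells, gave EC50.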
row,EC50 [nM],SMILES
1,2,"Cc1ncc(CN2CC[C@@H](NC(=O)Nc3ccc(Cl)cc3)[C@H](c3ccc(Cl)s3)C2)cn1 (relative stereo) [Ex-76, trans-1-(4-chlorophenyl)-3-[3-(5-chlorothiophen-2-yl)-1-[(2-methylpyrimidin-5-yl)methyl]piperidin-4-yl]urea]"
2,23,"COCCC(=O)N1CC[C@@H](NC(=O)Nc2ccc(Cl)cc2)[C@H](c2ccc(OC)cn2)C1 (relative stereo) [Ex-79, trans-1-(4-chlorophenyl)-3-[5-methoxy-1'-(3-methoxy-propionyl)-1',2',3',4',5',6'-hexahydro-[2,3']bipyridinyl-4'-yl]-urea]"
3,13,"COc1ccc([C@@H]2CN(C(=O)C3CCC(OC)CC3)CC[C@H]2NC(=O)Nc2ccc(Cl)cc2)nc1 (relative stereo) [Ex-81, trans-1-(4-chloro-phenyl)-3-[5-methoxy-1'-(4-methoxy-cyclohexanecarbonyl)-1',2',3',4',5',6'-hexahydro-[2,3']bipyridinyl-4'-yl]-urea]"
4,1,"Cc1ccc(CN2CC[C@@H](NC(=O)Nc3ccc(Cl)cc3)[C@H](c3ccc(Cl)s3)C2)cn1 (relative stereo) [Ex-87, trans-1-(4-chlorophenyl)-3-[3-(5-chlorothiophen-2-yl)-1-[(6-methylpyridin-3-yl)methyl]piperidin-4-yl]urea]"
5,1.2,"COc1ccc([C@@H]2CN(C(=O)C3CCNCC3)CC[C@H]2NC(=O)Nc2ccc(Cl)cc2)nc1 (relative stereo) [Ex-88, trans-1-(4-chloro-phenyl)-3-[5-methoxy-1'-(piperidine-4-carbonyl)-1',2',3',4',5',6'-hexahydro-[2,3']bipyridinyl-4'-yl]-urea]"
6,32,"COc1ccc([C@@H]2CN(C(=O)C3CCC(O)CC3)CC[C@H]2NC(=O)Nc2ccc(Cl)cc2)nc1 (relative stereo) [Ex-90, trans-1-(4-chloro-phenyl)-3-[1'-(4-hydroxy-cyclohexanecarbonyl)-5-methoxy-1',2',3',4',5',6'-hexahydro-[2,3']bipyridinyl-4'-yl]-urea]"
7,11,"COCCCN1CC[C@@H](NC(=O)Nc2ccc(Cl)cc2)[C@H](c2ccc(Cl)s2)C1 (relative stereo) [Ex-91, trans-1-(4-chloro-phenyl)-3-[3-(5-chloro-thiophen-2-yl)-1-(3-methoxy-propyl)-piperidin-4-yl]-urea]"
8,4,"COc1ccc([C@@H]2CN(C(=O)C3COC3)CC[C@H]2NC(=O)Nc2ccc(Cl)cc2)nc1 (relative stereo) [Ex-92, trans-1-(4-chloro-phenyl)-3-[5-methoxy-1'-(oxetane-3-carbonyl)-1',2',3',4',5',6'-hexahydro-[2,3']bipyridinyl-4'-yl]-urea]"
9,3,"COc1ccc([C@@H]2CN(CCS(C)(=O)=O)CC[C@H]2NC(=O)Nc2ccc(Cl)cc2)nc1 (relative stereo) [Ex-93, trans-1-(4-chloro-phenyl)-3-[1'-(2-methanesulfonyl-ethyl)-5-methoxy-1',2',3',4',5',6'-hexahydro-[2,3']bipyridinyl-4'-yl]-urea]"
10,12,"COc1ccc([C@@H]2CN(C(=O)CCN(C)C)CC[C@H]2NC(=O)Nc2ccc(Cl)cc2)nc1 (relative stereo) [Ex-95, trans-1-(4-chloro-phenyl)-3-[1'-(3-dimethylamino-propionyl)-5-methoxy-1',2',3',4',5',6'-hexahydro-[2,3']bipyridinyl-4'-yl]-urea]"
11,4,"CNCC(=O)N1CC[C@@H](NC(=O)Nc2ccc(Cl)cc2)[C@H](c2ccc(OC)cn2)C1 (relative stereo) [Ex-96, trans-1-(4-chloro-phenyl)-3-[5-methoxy-1'-(2-methylamino-acetyl)-1',2',3',4',5',6'-hexahydro-[2,3']bipyridinyl-4'-yl]-urea]"
12,4,"CNCCC(=O)N1CC[C@@H](NC(=O)Nc2ccc(Cl)cc2)[C@H](c2ccc(OC)cn2)C1 (relative stereo) [Ex-97, trans-1-(4-chloro-phenyl)-3-[5-methoxy-1'-(3-methylamino-propionyl)-1',2',3',4',5',6'-hexahydro-[2,3']bipyridinyl-4'-yl]-urea]"
13,27,"COc1ccc([C@@H]2CN(C(=O)CCO)CC[C@H]2NC(=O)Nc2ccc(Cl)cc2)nc1 (relative stereo) [Ex-102, trans-1-(4-chloro-phenyl)-3-[1'-(3-hydroxy-propionyl)-5-methoxy-1',2',3',4',5',6'-hexahydro-[2,3']bipyridinyl-4'-yl]-urea]"
14,2,"COc1ccc([C@@H]2CN(CCCO)CC[C@H]2NC(=O)Nc2ccc(Cl)cc2)nc1 (relative stereo) [Ex-103, trans-1-(4-chloro-phenyl)-3-[1'-(3-hydroxy-propyl)-5-methoxy-1',2',3',4',5',6'-hexahydro-[2,3']bipyridinyl-4'-yl]-urea]"
15,6,"CN1CCC(C(=O)N2CC[C@@H](NC(=O)Nc3ccc(Cl)cc3)[C@H](c3ccc(Cl)s3)C2)CC1 (relative stereo) [Ex-104, trans-1-(4-chloro-phenyl)-3-[3-(5-chloro-thiophen-2-yl)-1-(1-methyl-piperidine-4-carbonyl)-piperidin-4-yl]-urea]"
16,11,"O=C(Nc1ccc(Cl)cc1)N[C@@H]1CCN(CCCO)C[C@H]1c1ccc(Cl)s1 (relative stereo) [Ex-105, trans-1-(4-chloro-phenyl)-3-[3-(5-chloro-thiophen-2-yl)-1-(3-hydroxy-propyl)-piperidin-4-yl]-urea]"
17,46,"COC1CCC(C(=O)N2CC[C@@H](NC(=O)Nc3ccc(Cl)cc3)[C@H](c3ccc(Cl)s3)C2)CC1 (relative stereo) [Ex-107, trans-1-(4-chloro-phenyl)-3-[3-(5-chloro-thiophen-2-yl)-1-(4-methoxy-cyclohexanecarbonyl)-piperidin-4-yl]-urea]"
18,7,"COc1ccc([C@@H]2CN(C3COC3)CC[C@H]2NC(=O)Nc2ccc(Cl)cc2)nc1 (relative stereo) [Ex-108, trans-1-(4-chloro-phenyl)-3-(5-methoxy-1'-oxetan-3-yl-1',2',3',4',5',6'-hexahydro-[2,3']bipyridinyl-4'-yl)-urea]"
19,1.2,"COc1ccc([C@@H]2CN(CC3COC3)CC[C@H]2NC(=O)Nc2ccc(Cl)cc2)nc1 (relative stereo) [Ex-109, trans-1-(4-chloro-phenyl)-3-(5-methoxy-1'-oxetan-3-ylmethyl-1',2',3',4',5',6'-hexahydro-[2,3']bipyridinyl-4'-yl)-urea]"
20,49,"COc1ccc([C@@H]2CN(C3CCS(=O)(=O)CC3)CC[C@H]2NC(=O)Nc2ccc(Cl)cc2)nc1 (relative stereo) [Ex-110, trans-1-(4-chlorophenyl)-3-(1-(1,1-dioxidotetrahydro-2H-thiopyran-4-yl)-3-(5-methoxypyridin-2-yl)piperidin-4-yl)urea]"
21,0.2,"COc1ccc([C@@H]2CN(CCCN(C)C)CC[C@H]2NC(=O)Nc2ccc(Cl)cc2)nc1 (relative stereo) [Ex-111, trans-1-(4-chloro-phenyl)-3-[1'-(3-dimethylaminopropyl)-5-methoxy-1',2',3',4',5',6'-hexahydro-[2,3']bipyridinyl-4'-yl]-urea]"
22,1.2,"COc1ccc([C@@H]2CNCC[C@H]2NC(=O)Nc2ccc(Cl)cc2)nc1 (relative stereo) [Ex-112, trans-1-(4-chlorophenyl)-3-[3-(5-methoxypyridin-2-yl)piperidin-4-yl]urea]"
23,0.6,"COc1ccc([C@@H]2CN(CC3CCC(O)CC3)CC[C@H]2NC(=O)Nc2ccc(Cl)cc2)nc1 (relative stereo) [Ex-114, trans-1-(4-chloro-phenyl)-3-[1'-(4-hydroxy-cyclohexylmethyl)-5-methoxy-1',2',3',4',5',6'-hexahydro-[2,3']bipyridinyl-4'-yl]-urea]"
24,0.5,"COc1ccc([C@@H]2CN(CC3CCC(OC)CC3)CC[C@H]2NC(=O)Nc2ccc(Cl)cc2)nc1 (relative stereo) [Ex-115, trans-1-(4-chloro-phenyl)-3-[5-methoxy-1'-(4-methoxy-cyclohexylmethyl)-1',2',3',4',5',6'-hexahydro-[2,3']bipyridinyl-4'-yl]-urea]"
25,9,"COC1CCC(CN2CC[C@@H](NC(=O)Nc3ccc(Cl)cc3)[C@H](c3ccc(Cl)s3)C2)CC1 (relative stereo) [Ex-116, trans-1-(4-chloro-phenyl)-3-[3-(5-chloro-thiophen-2-yl)-1-(4-methoxy-cyclohexylmethyl)-piperidin-4-yl]-urea]"

# Same assay, conditions: agonistic response at 0.1µM
row,activation at 0.1 µM [%],SMILES
1,19,"O=C(Nc1ccc(Cl)cc1)N[C@@H]1CCN(CC2CCOCC2)C[C@H]1c1ccc(Cl)s1 (relative stereo) [Ex-86, trans-1-(4-chlorophenyl)-3-(3-(5-chlorothiophen-2-yl)-1-((tetrahydro-2H-pyran-4-yl)methyl)piperidin-4-yl)urea]"
2,26,"COc1ccc([C@@H]2CN(C(=O)c3cnccc3C(F)(F)F)CC[C@H]2NC(=O)Nc2ccc(Cl)cc2)nc1 (relative stereo) [Ex-98, trans-1-(4-chlorophenyl)-3-[3-(5-methoxypyridin-2-yl)-1-{[4-(trifluoromethyl)pyridin-3-yl]carbonyl}piperidin-4-yl]urea]"
3,41,"COCCC(=O)N1CC[C@@H](NC(=O)Nc2ccc(Cl)cc2)[C@H](c2ccc(Cl)s2)C1 (relative stereo) [Ex-106, trans-1-(4-chloro-phenyl)-3-[3-(5-chloro-thiophen-2-yl)-1-(3-methoxy-propionyl)-piperidin-4-yl]-urea]"

# From patent EP3789378A1, “PIPERIDINES OR PIPERIDONES SUBSTITUTED WITH UREA AND HETEROARYL” (Grünenthal GmbH, priority 2019, dated 2021)
